Reference: paper PMC9675441 (JCI Insight, 2022)
pKd: −log10 of the molar value.

Target: T1, ISG20L2 (interferon-stimulated 20 kDa exonuclease-like 2) (Homo sapiens, UniProt Q9H9L3)
T1 construct: recombinant human ISG20L2 (rISG)
T1 sequence (Q9H9L3 1-353): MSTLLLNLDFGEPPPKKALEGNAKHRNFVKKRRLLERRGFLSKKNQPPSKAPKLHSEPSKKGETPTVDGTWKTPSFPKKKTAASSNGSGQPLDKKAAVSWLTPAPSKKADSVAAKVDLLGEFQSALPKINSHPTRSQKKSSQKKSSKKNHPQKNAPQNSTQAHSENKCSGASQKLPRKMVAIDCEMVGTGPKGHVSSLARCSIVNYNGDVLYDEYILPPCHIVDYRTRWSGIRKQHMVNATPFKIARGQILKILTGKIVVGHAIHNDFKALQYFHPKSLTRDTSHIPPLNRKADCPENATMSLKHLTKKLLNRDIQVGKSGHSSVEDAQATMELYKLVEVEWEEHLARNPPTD
Test: SPR (Biacore X100, ISG20L2 immobilized on CM5 chip)
Assay type: binding

pKd | Compound
4.57 | CC(C)C[C@H](NC(=O)[C@H](Cc1ccccc1)NC(=O)c1cnccn1)B(O)O [BTZ, bortezomib]
5.06 | CC(C)C[C@H](NC(=O)[C@H](CCc1ccccc1)NC(=O)CN1CCOCC1)C(=O)N[C@@H](Cc1ccccc1)C(=O)N[C@@H](CC(C)C)C(=O)[C@@]1(C)CO1 [CFZ, carfilzomib]
